23 compounds from ChEMBL document CHEMBL3875178, “Discovery of oral-available resveratrol-caffeic acid based hybrids inhibiting acetylated and phosphorylated STAT3 protein” (Eur J Med Chem, 2016) can be followed below.

The term IC50 denotes the concentration that gives 50% inhibition. Lower therefore signals greater potency.

Data set [1] can be described thus: Growth inhibition of human HT-29 cells after 48 hrs by MTT assay. As to conditions: HT-29, 48 h. It counts as functional, cell-based.
The nature of data set [2]: Growth inhibition of human MDA-MB-231 cells after 48 hrs by MTT assay. It counts as functional, cell-based. As to conditions: MDA-MB-231, 48 h.
Data set [3] has as its system Mus musculus. Kind of data set: Toxicity in Kunming mouse implanted with mouse 4T1 cells assessed as body weight loss at 1 mg/kg, ip administered once in 4 days for 14 days measured during compound dosing. It counts as organism-based. The settings on record: in vivo.
In data set [4] the test system is HT-29. The experiment in a line: Potency index, ratio of resveratrol IC50 to compound IC50 for human HT-29 cells. It counts as functional.

Turning to `COc1cc(/C=C/c2ccc(OC(=O)/C=C/c3ccc(C(F)(F)F)cc3)cc2)cc(OC)c1`, the figures for the IC50 in data set [1] and in data set [2] were 9.09 µM and 6.91 µM, respectively.
On the same counts, the results for `COc1cc(/C=C/c2ccc(NC(=O)/C=C/c3ccccn3)cc2)cc(OC)c1` are 6.12 µM and 3.4 µM.
Taken in the same sequence, the figures for `COc1cc(/C=C/c2ccc(NC(=O)/C=C/c3ccc(Br)cc3)cc2)cc(OC)c1` were 5.26 µM and 6.16 µM.
Taken in the same sequence, the figures for `COc1cc(/C=C/c2ccc(OC(=O)/C=C/c3ccc(F)cc3)cc2)cc(OC)c1` were 7.77 µM and 6.21 µM.
On to `COc1cc(/C=C/c2ccc(NC(=O)/C=C/c3ccc(C#N)cc3)cc2)cc(OC)c1`, for which the 50% inhibitory concentration (IC50) in data set [1] was 3.32 µM; in data set [2] it was 7.74 µM.
Regarding `COc1cc(/C=C/c2ccc(OC(=O)/C=C/c3ccccc3)cc2)cc(OC)c1`, the concentration for half-maximal inhibition (IC50) turned out to be 9.05 µM in data set [1] and 9.81 µM in data set [2].
Take `COc1cc(/C=C/c2ccc(NC(=O)/C=C/c3ccc(F)cc3)cc2)cc(OC)c1`: the results for the IC50 in data set [1] and in data set [2] were 11.6 µM and 9.39 µM, respectively.
With `COc1cccc2c1C(=O)c1c(O)c3c(c(O)c1C2=O)C[C@@](O)(C(=O)CO)C[C@@H]3O[C@H]1C[C@H](N)[C@H](O)[C@H](C)O1` [DOXORUBICIN], the Activity entry in data set [3] is “Toxic”.
Consider `COc1cc(/C=C/c2ccc(NC(=O)/C=C/c3ccc(Cl)cc3)cc2)cc(OC)c1`, for which the figures for the IC50 in data set [1] and in data set [2] were 10.3 µM and 14.1 µM, respectively.
Taken in the same sequence, the figures for `COc1ccc(/C=C/C(=O)Nc2ccc(/C=C/c3cc(OC)cc(OC)c3)cc2)cc1` were 5.96 µM and 4.23 µM.
Taken in the same sequence, the figures for `COc1cc(/C=C/c2ccc(NC(=O)/C=C/c3cccc(F)c3)cc2)cc(OC)c1` were 16.8 µM and 17.3 µM.
As for `COc1cc(/C=C/c2ccc(NC(=O)/C=C/c3ccc(OC)c(OC)c3)cc2)cc(OC)c1`, the IC50 in data set [1] turned out to be 0.96 µM; in data set [2], 7.74 µM. The “Ratio IC50” value in data set [4] was more than 50.
For `COc1cc(/C=C/c2ccc(OC(=O)/C=C/c3ccc([N+](=O)[O-])cc3)cc2)cc(OC)c1`, the IC50 in data set [1] was more than 20 µM; in data set [2], 18 µM.
As for `COc1cc(/C=C/c2ccc(NC(=O)/C=C/c3ccccc3)cc2)cc(OC)c1`, the IC50 in data set [1] amounted to 1.75 µM; in data set [2] it was 2.01 µM.
In the case of `COc1cc(/C=C/c2ccc(OC(=O)/C=C/c3cc(OC)c(OC)c(OC)c3)cc2)cc(OC)c1`, the figures for the IC50 in data set [1] and in data set [2] were 2.91 µM and 3.08 µM, respectively.
Taken in the same sequence, the figures for `O=C(O)/C=C/c1ccc(O)c(O)c1` [CAFFEIC ACID] were more than 100 µM and more than 100 µM.
Consider `Oc1ccc(/C=C/c2cc(O)cc(O)c2)cc1` [RESVERATROL], for which the IC50 in data set [1] and in data set [2] was more than 100 µM in each case.
With `COc1cc(/C=C/c2ccc(NC(=O)/C=C/c3ccc(O)c(O)c3)cc2)cc(OC)c1`, the figures for the IC50 in data set [1] and in data set [2] were 1.56 µM and 4.23 µM, respectively.
Taken in the same sequence, the figures for `COc1cc(/C=C/c2ccc(NC(=O)/C=C/c3cc(OC)c(O)c(OC)c3)cc2)cc(OC)c1` were 3.08 µM and 7.13 µM.
Consider `COc1cc(/C=C/c2ccc(NC(=O)/C=C/c3ccc(F)cc3F)cc2)cc(OC)c1`, for which the results for the IC50 in data set [1] and in data set [2] were 18.1 µM and more than 20 µM, respectively.
Taken in the same sequence, the figures for `COc1cc(/C=C/c2ccc(NC(=O)/C=C/c3ccc(C(F)(F)F)cc3)cc2)cc(OC)c1` were 1.78 µM and 3.52 µM.
On the same counts, the results for `COc1cc(/C=C/c2ccc(NC(=O)/C=C/c3ccccc3F)cc2)cc(OC)c1` are 2.82 µM and 2.38 µM.
Turning to `COc1cc(/C=C/c2ccc(NC(=O)/C=C/c3ccc([N+](=O)[O-])cc3)cc2)cc(OC)c1`, the IC50 is 10.7 µM in data set [1] and 11.7 µM in data set [2].
